Laboratory results: PubChem BioAssay (NCI)
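Step 1: Grow cells in 96-well plates. Step 2: Expose to compound for 48 hours at 5 concentrations. Step 3: Interpolate endpoints linearly; if unreached, use highest concentration. GI50 is the concentration that inhibits growth by half. TGI denotes the concentration required for complete inhibition of growth.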

Legend:
Experiment in all cases: NCI-60 cell line screen, 48 h
MALME-3M melanoma = system: MALME-3M melanoma
A498 renal = system: A498 renal
K-562 leukemia = system: K-562 leukemia
NCI-H522 lung = system: NCI-H522 lung
A549 NSCLC = system: A549 NSCLC
MDA-MB-435 = system: MDA-MB-435
OVCAR-8 ovarian = system: OVCAR-8 ovarian
U251 CNS = system: U251 CNS
COLO 205 colon = system: COLO 205 colon
HOP-92 NSCLC = system: HOP-92 NSCLC

| SMILES | GI50 (MALME-3M melanoma) | TGI (MALME-3M melanoma) | GI50 (A498 renal) | TGI (A498 renal) | GI50 (K-562 leukemia) | TGI (K-562 leukemia) | GI50 (NCI-H522 lung) | TGI (NCI-H522 lung) | GI50 (A549 NSCLC) | TGI (A549 NSCLC) | GI50 (MDA-MB-435) | TGI (MDA-MB-435) | GI50 (OVCAR-8 ovarian) | TGI (OVCAR-8 ovarian) | GI50 (U251 CNS) | TGI (U251 CNS) | GI50 (COLO 205 colon) | TGI (COLO 205 colon) | TGI (HOP-92 NSCLC) | GI50 (HOP-92 NSCLC) |
| --- | --- | --- | --- | --- | --- | --- | --- | --- | --- | --- | --- | --- | --- | --- | --- | --- | --- | --- | --- | --- |
| CC(=O)/C=C/C1=C(c2cccs2)c2ccccc2CC1 | 28.3 µM | 54.9 µM | 23.7 µM | 47.9 µM | 32.5 µM | > 100 µM | 25.1 µM | 66.8 µM | 37.3 µM | > 100 µM | 25.8 µM | 51.3 µM | 38.9 µM | > 100 µM | 22.8 µM | 51.1 µM | 23.1 µM | 49 µM | – | – |
| O=C(O)/C(=C\c1ccccc1Cl)S(=O)(=O)c1ccccc1 | – | > 100 µM | – | > 100 µM | – | > 100 µM | – | > 100 µM | – | > 100 µM | – | – | – | > 100 µM | – | > 100 µM | – | > 100 µM | > 100 µM | – |
| CC(=O)[C-](C(C)=O)c1ccccc1.CC(=O)[C-](C(C)=O)c1ccccc1.CC[O-].CC[O-].[Ti+4] | > 100 µM | > 100 µM | – | – | > 100 µM | > 100 µM | > 100 µM | > 100 µM | > 100 µM | > 100 µM | – | – | > 100 µM | > 100 µM | > 100 µM | > 100 µM | > 100 µM | > 100 µM | > 100 µM | > 100 µM |
| CCCCCCCCCCCC(=O)c1c(O)cccc1O | – | 29.5 µM | – | – | – | > 100 µM | – | 33.2 µM | – | 33.7 µM | – | – | – | 33.5 µM | – | 34 µM | – | 29 µM | 32.3 µM | – |
| CC(C(=O)c1ccc(Cl)cc1)C1OC(=O)C(Cl)=C1Cl (stereo not drawn) | – | 41.7 µM | – | > 100 µM | – | 58.8 µM | – | 37.7 µM | – | > 100 µM | – | – | – | > 100 µM | – | > 100 µM | – | 51 µM | – | – |
| OCC#Cc1ccccc1C#Cc1ccc(C#Cc2ccccc2C#CCO)s1 | – | – | – | – | 64 µM | > 100 µM | 11.7 µM | 29.2 µM | 19.1 µM | 41 µM | 15.1 µM | 29.2 µM | 21.2 µM | 45.6 µM | 20.1 µM | 42.3 µM | 17.9 µM | 48.5 µM | 29.7 µM | 15.6 µM |
| c1cc[c]([Sn]([S]c2cccc3cccnc23)([S]c2cccc3cccnc23)[c]2ccccc2)cc1 | 0.168 µM | 0.547 µM | 0.0359 µM | 0.202 µM | – | – | – | – | 0.363 µM | 1.38 µM | – | – | 0.25 µM | 0.895 µM | 0.482 µM | 1.92 µM | 0.136 µM | 0.298 µM | 0.493 µM | 0.158 µM |
| CCCCCC(O)(CCCCC)CCCCCCCCC1=C(O)c2[nH]c(=O)ccc2C(=O)C1=O | – | 13.9 µM | – | 24.6 µM | – | 26.7 µM | – | 20.8 µM | – | 26.3 µM | – | – | – | 23.1 µM | – | 16.7 µM | – | 31.9 µM | 28.1 µM | – |
| CCCCCCCCCCCC(O)=C1C(=O)CC(O)CC1=O (stereo not drawn) | – | – | – | – | – | > 100 µM | – | > 100 µM | – | > 100 µM | – | – | – | > 100 µM | – | > 100 µM | – | > 100 µM | > 100 µM | – |
| COC(=O)/C(=C/c1ccc(OC)cc1)NC(=O)c1ccccc1 | – | > 100 µM | – | > 100 µM | – | > 100 µM | – | – | – | > 100 µM | – | – | – | > 100 µM | – | > 100 µM | – | – | > 100 µM | – |
| CN1CCN(c2ccc(NC3=C(Cl)C(=O)c4ncccc4C3=O)cc2C#N)CC1 | 1.47 µM | 2.81 µM | 11.7 µM | 25.3 µM | 0.312 µM | > 100 µM | – | – | 17.4 µM | 33.7 µM | 1.91 µM | 3.67 µM | 2.59 µM | 9.37 µM | 2.01 µM | 4.44 µM | 2.06 µM | 4.51 µM | 3.45 µM | 1.82 µM |
| N[C@@H]1CCCC[C@@H]1N.O=C([O-])CN(CP(=O)([O-])[O-])CP(=O)([O-])[O-].[Pt+2] | > 100 µM | > 100 µM | > 100 µM | > 100 µM | > 100 µM | > 100 µM | > 100 µM | > 100 µM | > 100 µM | > 100 µM | – | – | > 100 µM | > 100 µM | > 100 µM | > 100 µM | 50.1 µM | > 100 µM | > 100 µM | > 100 µM |
| O=C(NNS(=O)(=O)c1ccc(F)cc1)c1cccnc1Nc1ccc(Cl)cc1Cl | 34.7 µM | > 100 µM | 17.3 µM | 36.5 µM | 20.1 µM | 83.2 µM | – | – | 17.2 µM | 41 µM | 84.4 µM | > 100 µM | 26.9 µM | > 100 µM | 29.1 µM | > 100 µM | 16.4 µM | 50.8 µM | 36.1 µM | 15.4 µM |
| C#C[C@H](CCCC)OC(=O)N[C@H](C)c1ccccc1 | – | – | – | – | – | > 100 µM | – | 86.8 µM | – | > 100 µM | – | – | – | > 100 µM | – | > 100 µM | – | 48.7 µM | > 100 µM | – |
| c1cc(-c2cn[nH]c2)cc(-c2cn[nH]c2)c1 | – | – | – | 89.7 µM | – | > 100 µM | – | > 100 µM | – | 69.5 µM | – | – | – | > 100 µM | – | > 100 µM | – | > 100 µM | > 100 µM | – |
| CO[C@@]12C[C@H]3[C@@H]([C@@H](O)[C@@H](OC(=O)/C=C/c4ccccc4)[C@@]4(O)C(C)(C)CCC[C@]34C)[C@@H](C)C1=CC(=O)O2 | – | – | 11.3 µM | 26.3 µM | 12.5 µM | > 100 µM | 35.1 µM | > 100 µM | 3.64 µM | 18.4 µM | 4.85 µM | 28.2 µM | 5.24 µM | 25.6 µM | 3.29 µM | 13.7 µM | 5.42 µM | 54.2 µM | – | – |
| COc1cc(Cl)c2c3c(c(C(=O)c4ccccc4)oc13)CCC2 | – | – | – | > 100 µM | – | > 100 µM | – | – | – | > 100 µM | – | – | – | > 100 µM | – | > 100 µM | – | > 100 µM | – | – |
| CC1(C)CC(=O)C(=[N+]=[N-])C(=O)C1 | – | > 100 µM | – | – | – | > 100 µM | – | > 100 µM | – | > 100 µM | – | – | – | – | – | – | – | > 100 µM | > 100 µM | – |
| CC1CCP(=O)(c2ccccc2)CC1 (stereo not drawn) | – | > 100 µM | – | – | – | > 100 µM | – | – | – | > 100 µM | – | – | – | > 100 µM | – | > 100 µM | – | > 100 µM | – | – |
| COc1cc(NCC2COc3c(ccc(OC)c3OC)C2=O)c([N+](=O)[O-])cc1OC (stereo not drawn) | – | – | – | > 100 µM | – | > 100 µM | – | > 100 µM | – | > 100 µM | – | > 100 µM | – | > 100 µM | – | > 100 µM | – | > 100 µM | – | – |
